PubChem BioAssay AID2060493 (Molecular Pharmacology Branch, DTP, NCI, 2025)
pIC50: −log10 of the molar value. Values joined by “and” are separate entries in the source; they are usually repeats but may differ in a detail not shown here. Equal values may be shown once.

Test system: 616215-338-R-J1-PDC tumor spheroids, viability
Test: Anticancer human tumor 616215-338-R-J1-PDC patient-derived colon adenocarcinoma cell line growth inhibition [GQUAD]
Settings: spheroids with HUVEC and MSC; for viability, T/C: stronger effect = lower value
From the text: DNA G-quadruplex Stabilizer Agents in Combinations in Complex Spheroids
A high-throughput screen of multi-cell type tumor spheroids was designed to identify active combinations of DNA G-quadruplex stabilizer agents and targeted small molecules. Complex spheroids include a stromal component modeled by human endothelial cells (HUVEC) and fibroblasts modeled by human mesenchymal stem cells (MSCs). The concentration ranges selected for each drug and investigational agent were based upon clinically achievable concentrations if the clinical Cmax of the agent was known.
Compounds. The drugs and investigational agents: pidnarulex (CX-5461; NSC782164), APTO-253 (NSC789042), BRACO-19 (NSC847499), peposertib (NSC802822), ceralasertib (NSC780249), elimusertib (NSC800525), camonsertib (NSC841442), AZD-1390 (NSC803789), olaparib (NSC753686), talazoparib (NSC767125), ART-558 (NSC835418), sotorasib (NSC818433), MRTX-1133 (NSC836407), SN-38 (NSC673596), topotecan (NSC609699), etoposide (NSC141540), doxorubicin (NSC123127), gemcitabine (NSC613327), 5-fluorouracil (NSC19893), paclitaxel (NSC125973), vemurafenib (NSC761431), panobinostat (NSC761190), R-306465 (JNJ-16241199; NSC773264), adavosertib (NSC754352), TP-3654 (NSC805149), carboplatin (NSC241240), KSQ-4279 (NSC840948), and staurosporine (NSC755774) were obtained from the National Cancer Institute (NCI) Developmental Therapeutics Program Chemical Repository (34). The FDA-approved anticancer drug set is available from the NCI Developmental Therapeutics Program. […] The stock solutions were prepared in dimethyl sulfoxide (DMSO, Sigma-Aldrich, St. Louis, MO, cat. D2650) at 800-fold the tested concentration and stored at -70 degrees C prior to their use. All drugs and investigational agents were tested over a range starting from a high concentration at or near the clinical Cmax and decreasing in half-log increments. If the clinical Cmax for an agent had not been determined, the highest concentration tested was 10 microM.
2.3 Cell Culture. All cells were maintained in an incubator at 37 degrees C and 5% CO2 with 95% humidity. The PDC lines were cultured according to standard operating procedures established by the NCI PDMR. All PDCs were thawed and cultured in Matrigel-coated flasks prepared with a working solution of 1X Ham's F-12 nutrient mix, without supplementation (Invitrogen, cat. 11765054), 100 U/mL penicillin-streptomycin (Invitrogen, cat. 15140122), and 2.5% Matrigel (Corning Inc., cat. 354248) for the first three passages. The 857933-349-R-J2-PDC line was cultured in 6C/Colon 1B media, which includes advanced DMEM/F-12 (Thermo Fisher Scientific, cat. 12634028), 10 mM HEPES (Thermo Fisher Scientific, cat. 15630080), 1X GlutaMAX supplement (Thermo Fisher Scientific, cat. 35050061), 0.1 mg/mL primocin (InvivoGen, cat. ant-pm-2), 10% defined fetal bovine serum, heat inactivated (HyClone Laboratories Inc., cat. SH30070.03HI), 50% L-WRN conditioned media (ATCC, cat. CRL-3276), 1.25 mM N-Acetyl-L-cysteine (Sigma-Aldrich, cat. A9165), 10 mM nicotinamide (Sigma-Aldrich, cat. N0636), 1X B-27 supplement (Thermo Fisher Scientific, cat. 17504044), 1X N-2 supplement (Thermo Fisher Scientific, cat. 17502048), 10 microM Y-27632 dihydrochloride (Tocris Bioscience, cat. 1254), and 50 ng/mL human EGF recombinant protein (Thermo Fisher Scientific, cat. PHG0311). The 485176-168-R4-J1-PDC line was cultured in Panc media, which includes all 6C/Colon 1B media components plus 100 ng/mL human FGF-10 (Thermo Fisher Scientific, cat. 100-26), 500 nM SB-431542 (Selleckchem, cat. S1067), and gastrin (Tocris, cat. 3006).
[…]

[1] = curve of first compound, second compound 0.0316 µM
[2] = curve of first compound, second compound 0.1 µM
[3] = curve of first compound, second compound 0.316 µM
[4] = curve of first compound, second compound 1 µM
[5] = curve of first compound, second compound 3.16 µM
[6] = curve of first compound, second compound 10 µM
[7] = second compound 0.0316 µM, first compound 0.0316 µM
[8] = second compound 0.0316 µM, first compound 0.1 µM
[9] = second compound 0.0316 µM, first compound 0.316 µM
[10] = second compound 0.0316 µM, first compound 1 µM
[11] = second compound 0.0316 µM, first compound 3.16 µM
[12] = second compound 0.0316 µM, first compound 10 µM
[13] = second compound 0.1 µM, first compound 0.0316 µM
[14] = second compound 0.1 µM, first compound 0.1 µM
[15] = second compound 0.1 µM, first compound 0.316 µM
[16] = second compound 0.1 µM, first compound 1 µM
[17] = second compound 0.1 µM, first compound 3.16 µM
[18] = second compound 0.1 µM, first compound 10 µM
[19] = second compound 0.316 µM, first compound 0.0316 µM
[20] = second compound 0.316 µM, first compound 0.1 µM
[21] = second compound 0.316 µM, first compound 0.316 µM
[22] = second compound 0.316 µM, first compound 1 µM
[23] = second compound 0.316 µM, first compound 3.16 µM
[24] = second compound 0.316 µM, first compound 10 µM
[25] = second compound 1 µM, first compound 0.0316 µM
[26] = second compound 1 µM, first compound 0.1 µM
[27] = second compound 1 µM, first compound 0.316 µM
[28] = second compound 1 µM, first compound 1 µM
[29] = second compound 1 µM, first compound 3.16 µM
[30] = second compound 1 µM, first compound 10 µM
[31] = second compound 3.16 µM, first compound 0.0316 µM
[32] = second compound 3.16 µM, first compound 0.1 µM
[33] = second compound 3.16 µM, first compound 0.316 µM
[34] = second compound 3.16 µM, first compound 1 µM
[35] = second compound 3.16 µM, first compound 3.16 µM
[36] = second compound 3.16 µM, first compound 10 µM
[37] = second compound 10 µM, first compound 0.0316 µM
[38] = second compound 10 µM, first compound 0.1 µM
[39] = second compound 10 µM, first compound 0.316 µM
[40] = second compound 10 µM, first compound 1 µM
[41] = second compound 10 µM, first compound 3.16 µM
[42] = second compound 10 µM, first compound 10 µM
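Note: spheroids exposed to agents for 7 days before readout.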
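Throughout, for viability, T/C: percent viability relative to DMSO vehicle control wells taken as 100%.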

C=CC(=O)N1CCN(c2nc(=O)n(-c3c(C)ccnc3C(C)C)c3nc(-c4c(O)cccc4F)c(F)cc23)C(C)C1 (configuration not stated) + CN(C)c1ccc(Nc2c3ccc(NC(=O)CCN4CCCC4)cc3nc3cc(NC(=O)CCN4CCCC4)ccc23)cc1
pIC50 [1]: < 5.00
pIC50 [2]: < 5.00
pIC50 [3]: < 5.00
pIC50 [4]: < 5.00
pIC50 [5]: < 5.00
pIC50 [6]: < 5.00
viability, T/C [7]: 96.3%
viability, T/C [8]: 104%
viability, T/C [9]: 103%
viability, T/C [10]: 102%
viability, T/C [11]: 94.2%
viability, T/C [12]: 72%
viability, T/C [13]: 110%
viability, T/C [14]: 89.6%
viability, T/C [15]: 100%
viability, T/C [16]: 98%
viability, T/C [17]: 95.4%
viability, T/C [18]: 64.8%
viability, T/C [19]: 93%
viability, T/C [20]: 107%
viability, T/C [21]: 94.9%
viability, T/C [22]: 103%
viability, T/C [23]: 89%
viability, T/C [24]: 70.6%
viability, T/C [25]: 98.7%
viability, T/C [26]: 100%
viability, T/C [27]: 102%
viability, T/C [28]: 91.9%
viability, T/C [29]: 91.6%
viability, T/C [30]: 69.1%
viability, T/C [31]: 102%
viability, T/C [32]: 86.7%
viability, T/C [33]: 94.9%
viability, T/C [34]: 95%
viability, T/C [35]: 80.2%
viability, T/C [36]: 63.9%
viability, T/C [37]: 98.1%
viability, T/C [38]: 85.7%
viability, T/C [39]: 86.3%
viability, T/C [40]: 86.8%
viability, T/C [41]: 70.3%
viability, T/C [42]: 55.2%

Cn1ncnc1[C@H]1c2n[nH]c(=O)c3cc(F)cc(c23)N[C@@H]1c1ccc(F)cc1
viability, T/C (compound 0.000999 µM): 101% and 92.4% and 96.4%
viability, T/C (compound 0.00316 µM): 90.2% and 96.7% and 93.7%
viability, T/C (compound 0.00999 µM): 104% and 101% and 99.2%
viability, T/C (compound 0.0316 µM): 88.4% and 99.1% and 102%
viability, T/C (compound 0.0999 µM): 106% and 100% (2×)
viability, T/C (compound 0.316 µM): 99% and 97.3% and 99.4%
pIC50 (curve of compound): < 6.50

COc1cc(C2c3cc4c(cc3C(OC3OC5COC(C)OC5C(O)C3O)C3COC(=O)C23)OCO4)cc(OC)c1O (configuration not stated)
viability, T/C (compound 0.0316 µM): 106% and 97.9% and 101%
viability, T/C (compound 0.1 µM): 93% and 95.6% and 92.9%
viability, T/C (compound 0.316 µM): 72.8% (2×) and 63.2%
viability, T/C (compound 1 µM): 41.4% and 57.3% and 43.4%
viability, T/C (compound 3.16 µM): 29.8% and 39.9% and 37.9%
viability, T/C (compound 10 µM): 24.3% and 21.6% and 20%
pIC50 (curve of compound): 6.13 and 5.81 and 6.11

O=c1[nH]cc(F)c(=O)[nH]1 + Cc1[nH]c2ccc(F)cc2c1-c1nc2c3cccnc3c3ncccc3c2[nH]1
pIC50 [1]: 6.16
pIC50 [2]: 6.42
pIC50 [3]: 6.23
pIC50 [4]: 6.14
pIC50 [5]: 6.47
pIC50 [6]: 6.54
viability, T/C [7]: 97.7%
viability, T/C [8]: 96.9%
viability, T/C [9]: 64.3%
viability, T/C [10]: 43%
viability, T/C [11]: 48.1%
viability, T/C [12]: 37%
viability, T/C [13]: 102%
viability, T/C [14]: 94.4%
viability, T/C [15]: 51.8%
viability, T/C [16]: 41.3%
viability, T/C [17]: 36.3%
viability, T/C [18]: 35.1%
viability, T/C [19]: 99.6%
viability, T/C [20]: 92.6%
viability, T/C [21]: 57.1%
viability, T/C [22]: 47%
viability, T/C [23]: 37%
viability, T/C [24]: 34.2%
viability, T/C [25]: 96%
viability, T/C [26]: 94.8%
viability, T/C [27]: 65.1%
viability, T/C [28]: 46.1%
viability, T/C [29]: 39.2%
viability, T/C [30]: 43.6%
viability, T/C [31]: 98.3%
viability, T/C [32]: 82.9%
viability, T/C [33]: 51.5%
viability, T/C [34]: 37.6%
viability, T/C [35]: 38.8%
viability, T/C [36]: 42.7%
viability, T/C [37]: 102%
viability, T/C [38]: 83.8%
viability, T/C [39]: 46.7%
viability, T/C [40]: 38.9%
viability, T/C [41]: 34.3%
viability, T/C [42]: 36.2%

CCCS(=O)(=O)Nc1ccc(F)c(C(=O)c2c[nH]c3ncc(-c4ccc(Cl)cc4)cc23)c1F
viability, T/C (compound 0.0316 µM): 100% (2×) and 106%
viability, T/C (compound 0.1 µM): 103% and 95.3% and 98.6%
viability, T/C (compound 0.316 µM): 97.9% and 100% and 97.8%
viability, T/C (compound 1 µM): 97% and 88.9% and 91.9%
viability, T/C (compound 3.16 µM): 89.7% and 88.8% and 104%
viability, T/C (compound 10 µM): 3.68% and 3.75% and 6.39%
pIC50 (curve of compound): 5.27 and 5.23

C=CC(=O)N1CCN(c2nc(=O)n(-c3c(C)ccnc3C(C)C)c3nc(-c4c(O)cccc4F)c(F)cc23)C(C)C1 (configuration not stated)
viability, T/C (compound 0.0316 µM): 104% and 97.8% and 91.6%
viability, T/C (compound 0.1 µM): 90.8% and 91.2% and 98.1%
viability, T/C (compound 0.316 µM): 90.4% and 93.1% and 102%
viability, T/C (compound 1 µM): 94.2% and 93.5% and 95.7%
viability, T/C (compound 3.16 µM): 91.2% and 93.4% and 92.8%
viability, T/C (compound 10 µM): 68.1% and 71.2% and 75.3%
pIC50 (curve of compound): < 5.00
